Experimental data published in patent US8889724B2, “Tetrazole compounds for reducing uric acid” (Wellstat Therapeutics Corporation, priority 2008, dated 2014).
Where “and” joins values, the source holds several entries; their conditions need not be identical. Equal entries are not always repeated.

Columns and labels:
[1] = target: human URAT1 (Homo sapiens (Human), UniProt Q96S37); assay: URAT1 inhibition assay: [8-14C] urate uptake in hURAT1-HEK cells; assay type: cell-based
Method: URAT1 (Uric Acid Transporter 1) is expressed on the apical membrane in renal tubules. It mediates the re-uptake of uric acid from the urine into the blood.
A suitable assay involves transfection of cells (e g human embryonic kidney cells; “HEK”) with a vector encoding human URAT1, followed by determination of the ability of transfected cells to take up radiolabeled uric acid. The activity of compounds as URAT1 inhibitors is evaluated by their ability to block uric acid uptake by transfected cells.
Test Compounds and Chemicals:
Urate (50-60 mCi/mmol; American Radio Chemicals, Cat. No. ARC0513).
Subcloning of hURAT1 into the Expression Vector:
Plasmid vector pCMV6-XL5 containing hURAT1 cDNA (Cat. No. SC125624) and the expression vector pCMV6-Neo (Cat. No. pCMVNEO) were obtained from OriGene Technologies, Inc. The full-length hURAT1 cDNA was obtained from the vector pCMV6-XL5 and subcloned into the expression vector pCMV6-Neo to create the hURAT1 expression plasmid pCMV6-hURAT1. The sequences were verified by automatic DNA sequencing.
Cell Culture, Transfection of URAT1 Expressing Plasmids and the Establishment of Stably Expressing HEK Cells for hURAT1:
For transfection experiments, cells were plated on 60 mm dishes in 1 ml media per dish. […] Stable transfectants expressing hURAT1 (herein after referred as hURAT1-HEK cells) or cells having only the expression vector pCMV6-Neo (herein after referred as mock-HEK cells) were verified using reverse transcription polymerase chain reaction (RT-PCR) methods.
[8-^14C] Urate Uptake Assay:
Before the uptake assay started, the culture medium was removed and the cells were incubated for 5 min in 0.6 ml of HBSS. After that HBSS was removed, the prepared reaction solutions were added into each well and incubated for 5 min at room temperature. Then the reaction solution was removed, cells were washed twice with 0.6 ml of cold HBSS and lysed with 0.2 ml of 0.1 M NaOH for 20 min. […] Test compounds were dissolved in DMSO and the same concentration of DMSO was added into the wells of mock-HEK cells and the hURAT1-HEK cells that didn't contain test compounds. For each test compound, the uptake assay was performed 2 times and carried out in triplicate. Urate uptake of the cells for each test condition was presented as the average percent inhibition in comparison to the DMSO control. The radioactivity values obtained for the wells that contained DMSO were taken as 100% uptake of the cells. The observed concentration-percent inhibition data were fitted to a sigmoidal concentration-effect model, where: % Inhibition=(100*Conc^Slope)/(IC50^Slope+Conc^Slope)
In this example the compounds were not necessarily tested simultaneously.

[2] = Rat pilot single-dose oral pharmacokinetic study with Compound EB; assay type: in vivo; conditions: 100 mg/kg single oral gavage; for Compound EB concentration in plasma, individual rats: male Sprague-Dawley rat
Method: Rat Pilot Single-Dose Oral Pharmacokinetic Study with Compound EB
Determination of the plasma profile of Compound EB following single oral gavage administration to male rats.
Test compound was suspended in 1% HPMC using a tissue homogenizer to minimize particles and maximize uniformity of the suspension and stored at 4° C. The formulations was thoroughly mixed just prior to administration. A dose of 100 mg/kg of test compounds or vehicle (1% HPMC) was administered to male Sprague-Dawley rats by single oral gavage. […] The blood samples were centrifuged within 30 minutes of collection under refrigeration (2-8° C.) for 7 minutes at 6000 rpm. Following centrifugation, the plasma were harvested into a single tube for each animal at each time point and immediately frozen at −80° C. until analyzed using LC/MS-MS. Serial plasma concentration time data was subjected to pharmacokinetic analyses using WinNonlin Standard (v2.1, Pharsight Corporation) and Microsoft EXCEL.
1. Rats received single oral gavage of Compound EB, 100 mg/kg, and plasma was collected at certain times.
2. Plasma was stored at −80° C. until the day of analysis.
3. Samples were thawed on 37° C. bath for 5 min and vortexed at top speed for 10 sec.
4. Rat plasma, 0.1 mL was mixed with 0.2 mL Acetonitrile, vortexed 1 min, spun down 14000 rpm, 17000 g, at 4° C., for 25 min.
(§1) 5. Supernatants were filtered through 0.45 micron, 4 mm, PTFE membrane syringe filter (Phenomenex # AF0-3102-52), and 13 microL were injected and resolved on Luna 3 micron, 100 A pore, C8(2), 150×3 mm, reverse phase column (Phenomenex#00F-4248-YO, SN#259151-7) in 50 min linear gradient from 40% to 69% of (0.1% Formic Acid, 89.9% Acetonitrile, 10% Methanol) at 0.25 mL/min, 100 bar, 37° C. column temperature, method 406975M1, AGILENT sequence 1015-08A, Agilent 1100 LC-MS.
All samples were run in duplicate, 210 nm and 230 nm Absorbances, Negative and Positive ionization spectrograms were recorded.
Step 1. Plasma from “Vehicle” animals (pooled), 0.19 mL, was mixed with 0.01 mL 20× stock of PN2107 in Methanol to make 500 microM, 250 microM, 125 microM, . . . , concentrations of Compound EB in plasma.
For example: 190 microL plasma+10 microL of 10 mM Compound EB in methanol=0.2 mL plasma with 500 microM Compound EB.
Step 2. Samples from step 1 were vortexed for 10 sec at top speed.
Step 3. 0.4 mL of acetonitrile was added to all samples from Step 2, and all vials were vortexed at top speed for 1 min.
Step 4. All samples from step 3 were spun down 14000 rpm, 17000 g, at 4° C., for 25 min.
as §1, with “Step 5.” for “5.”, “AF0-3102-52),” for “AF0-3102-52), and”, “ml/min,” for “mL/min,”, “temperature.” for “temperature, method 406975M1, AGILENT sequence 1015-08A, Agilent 1100 LC-MS.”

Chain of human URAT1 (Q96S37 whole entry): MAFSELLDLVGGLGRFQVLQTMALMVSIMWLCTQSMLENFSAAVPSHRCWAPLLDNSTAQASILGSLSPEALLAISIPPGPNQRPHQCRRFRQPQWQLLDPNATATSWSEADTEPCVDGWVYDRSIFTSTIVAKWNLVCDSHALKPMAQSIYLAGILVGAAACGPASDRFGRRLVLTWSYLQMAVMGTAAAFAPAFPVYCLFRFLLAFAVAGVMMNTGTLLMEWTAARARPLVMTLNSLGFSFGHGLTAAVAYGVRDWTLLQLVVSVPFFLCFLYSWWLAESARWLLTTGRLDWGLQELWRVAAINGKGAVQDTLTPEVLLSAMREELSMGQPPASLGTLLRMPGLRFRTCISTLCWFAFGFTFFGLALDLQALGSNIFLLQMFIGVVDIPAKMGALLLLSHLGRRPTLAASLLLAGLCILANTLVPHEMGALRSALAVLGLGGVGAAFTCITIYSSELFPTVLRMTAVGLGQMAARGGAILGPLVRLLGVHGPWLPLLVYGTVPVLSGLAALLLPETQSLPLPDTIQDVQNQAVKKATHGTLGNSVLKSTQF

inhibition at 10 µM ([1]; 10 μM, hURAT1-HEK cells): 90% | IC50 ([1]; 14C urate uptake in hURAT1-HEK cells): 930 nM | Detection in rat plasma (in words) ([2]; LC-MS): readily detected | Cmax ([2]; Sprague-Dawley, rat, male rats, plasma): 108 µg/mL | AUC(0-t) ([2]; Sprague-Dawley, rat, male rats, plasma, read-out: AUC 0-24): 566 µg·h/mL | half-life ([2]; Sprague-Dawley, rat, male rats, plasma, read-out: T ½): 3.99 h | Compound EB concentration in plasma, individual rats ([2]; 1 HR): 386 µM and 103 µM | Compound EB concentration in plasma, individual rats ([2]; 2 HR): 75 µM and 206 µM | Compound EB concentration in plasma, individual rats ([2]; 4 HR): 24 µM and 112 µM | Compound EB concentration in plasma, individual rats ([2]; 6 HR): 26 µM and 92 µM | Compound EB concentration in plasma, individual rats ([2]; 8 HR): 72 µM and 202 µM | Compound EB concentration in plasma, individual rats ([2]; 24 HR): 0 µM and 17 µM | Compound EB concentration in plasma, individual rats ([2]; 15 min): 184 µM and 159 µM | Compound EB concentration in plasma, individual rats ([2]; 30 min): 37 µM and 125 µM | concentration at 0 h ([2]; male, Sprague-Dawley, rat plasma, time 0, read-out: Compound EB concentrations, averages): 0 nM and 0 ng/mL | concentration at 0.25 h ([2]; male, Sprague-Dawley, rat plasma, time 0.25, read-out: Compound EB concentrations, averages): 172 µM and 48000 ng/mL | concentration at 0.5 h ([2]; male, Sprague-Dawley, rat plasma, time 0.5, read-out: Compound EB concentrations, averages): 81 µM and 22700 ng/mL | concentration at 1 h ([2]; male, Sprague-Dawley, rat plasma, time 1, read-out: Compound EB concentrations, averages): 244 µM and 68500 ng/mL | concentration at 2 h ([2]; male, Sprague-Dawley, rat plasma, time 2, read-out: Compound EB concentrations, averages): 140 µM and 39300 ng/mL | concentration at 4 h ([2]; male, Sprague-Dawley, rat plasma, time 4, read-out: Compound EB concentrations, averages): 68 µM and 19000 ng/mL | concentration at 6 h ([2]; male, Sprague-Dawley, rat plasma, time 6, read-out: Compound EB concentrations, averages): 59 µM and 16500 ng/mL | concentration at 8 h ([2]; male, Sprague-Dawley, rat plasma, time 8, read-out: Compound EB concentrations, averages): 137 µM and 38400 ng/mL | concentration at 24 h ([2]; male, Sprague-Dawley, rat plasma, time 24, read-out: Compound EB concentrations, averages): 8.5 µM and 2380 ng/mL
SMILES: Cc1cccc(C)c1COc1cccc(-c2nnn[nH]2)c1 [Compound EB, 5-(3-(2,6-Dimethylbenzyloxy)phenyl)-1H-tetrazole]
